Experimental data from ChEMBL document CHEMBL1143615, “Synthesis and structure-activity relationship of fluoro analogues of 8-{2-[4-(4-methoxyphenyl)piperazin-1yl]ethyl}-8-azaspiro[4.5]decane-7,9-dione as selective alpha(1d)-adrenergic receptor antagonists” (J Med Chem, 2005).

Experiments:
[1] = target: T1, Alpha-1B adrenergic receptor (Homo sapiens, UniProt P35368); assay: Binding affinity for human Alpha-1B adrenergic receptor
T1 sequence (P35368 whole entry): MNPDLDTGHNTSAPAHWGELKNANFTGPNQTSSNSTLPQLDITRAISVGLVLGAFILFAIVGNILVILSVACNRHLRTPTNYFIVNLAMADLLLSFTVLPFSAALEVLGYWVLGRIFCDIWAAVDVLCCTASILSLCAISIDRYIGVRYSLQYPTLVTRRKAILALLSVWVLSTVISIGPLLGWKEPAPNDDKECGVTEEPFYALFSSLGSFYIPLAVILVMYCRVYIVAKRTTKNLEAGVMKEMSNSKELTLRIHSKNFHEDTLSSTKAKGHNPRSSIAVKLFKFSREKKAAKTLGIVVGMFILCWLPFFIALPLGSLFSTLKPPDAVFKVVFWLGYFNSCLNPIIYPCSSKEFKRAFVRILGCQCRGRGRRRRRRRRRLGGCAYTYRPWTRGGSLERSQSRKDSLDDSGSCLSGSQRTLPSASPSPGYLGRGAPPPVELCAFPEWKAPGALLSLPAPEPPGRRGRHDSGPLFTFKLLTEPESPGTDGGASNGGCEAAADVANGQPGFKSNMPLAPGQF

[2] = target: D(3) dopamine receptor (Rattus norvegicus, UniProt P19020); assay: Binding affinity for rat Dopamine receptor D3
D(3) dopamine receptor, sequence (P19020 whole entry): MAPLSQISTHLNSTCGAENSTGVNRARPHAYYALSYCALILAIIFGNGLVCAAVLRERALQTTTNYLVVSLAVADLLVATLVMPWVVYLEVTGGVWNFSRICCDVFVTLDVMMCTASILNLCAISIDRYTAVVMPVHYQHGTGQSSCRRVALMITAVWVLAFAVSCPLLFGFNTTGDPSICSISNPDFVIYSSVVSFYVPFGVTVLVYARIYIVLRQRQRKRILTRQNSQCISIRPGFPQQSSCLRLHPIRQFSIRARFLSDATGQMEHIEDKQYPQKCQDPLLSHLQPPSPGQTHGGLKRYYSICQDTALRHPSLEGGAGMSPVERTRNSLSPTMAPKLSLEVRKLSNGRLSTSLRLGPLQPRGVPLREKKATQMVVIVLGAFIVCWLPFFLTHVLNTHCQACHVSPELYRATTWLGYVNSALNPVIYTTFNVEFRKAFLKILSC

[3] = target: D(2) dopamine receptor (Homo sapiens, UniProt P14416); assay: Binding affinity for human Dopamine receptor D2
D(2) dopamine receptor, sequence (P14416 whole entry): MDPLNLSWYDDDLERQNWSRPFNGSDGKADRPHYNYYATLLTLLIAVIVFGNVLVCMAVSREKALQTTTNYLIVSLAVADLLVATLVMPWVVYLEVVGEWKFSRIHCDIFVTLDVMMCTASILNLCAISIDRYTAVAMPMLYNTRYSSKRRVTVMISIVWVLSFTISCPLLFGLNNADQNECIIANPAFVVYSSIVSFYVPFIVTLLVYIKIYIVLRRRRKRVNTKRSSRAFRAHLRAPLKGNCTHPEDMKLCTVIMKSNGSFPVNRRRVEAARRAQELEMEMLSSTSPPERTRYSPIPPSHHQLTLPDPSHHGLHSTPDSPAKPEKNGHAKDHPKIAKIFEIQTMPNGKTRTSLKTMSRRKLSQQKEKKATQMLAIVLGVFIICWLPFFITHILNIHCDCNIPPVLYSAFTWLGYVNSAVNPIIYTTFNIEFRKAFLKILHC

[4] = target: T2, Alpha-1A adrenergic receptor (Homo sapiens, UniProt P35348); assay: Binding affinity for human Alpha-1A adrenergic receptor
T2 sequence (P35348 whole entry): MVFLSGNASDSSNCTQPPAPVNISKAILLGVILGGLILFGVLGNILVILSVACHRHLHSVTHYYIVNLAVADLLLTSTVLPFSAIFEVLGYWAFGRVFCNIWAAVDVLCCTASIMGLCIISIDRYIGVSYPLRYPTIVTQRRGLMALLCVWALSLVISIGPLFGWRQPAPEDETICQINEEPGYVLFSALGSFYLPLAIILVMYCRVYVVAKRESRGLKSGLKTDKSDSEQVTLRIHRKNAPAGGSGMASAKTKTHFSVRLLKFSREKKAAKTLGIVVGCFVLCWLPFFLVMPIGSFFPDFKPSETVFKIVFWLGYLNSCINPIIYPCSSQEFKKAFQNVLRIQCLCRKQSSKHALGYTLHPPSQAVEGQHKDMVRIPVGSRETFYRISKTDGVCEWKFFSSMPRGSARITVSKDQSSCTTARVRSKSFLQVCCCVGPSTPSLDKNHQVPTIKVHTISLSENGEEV

[5] = target: T3, 5-hydroxytryptamine receptor 1A (Homo sapiens, UniProt P08908)
T3 sequence (P08908 whole entry): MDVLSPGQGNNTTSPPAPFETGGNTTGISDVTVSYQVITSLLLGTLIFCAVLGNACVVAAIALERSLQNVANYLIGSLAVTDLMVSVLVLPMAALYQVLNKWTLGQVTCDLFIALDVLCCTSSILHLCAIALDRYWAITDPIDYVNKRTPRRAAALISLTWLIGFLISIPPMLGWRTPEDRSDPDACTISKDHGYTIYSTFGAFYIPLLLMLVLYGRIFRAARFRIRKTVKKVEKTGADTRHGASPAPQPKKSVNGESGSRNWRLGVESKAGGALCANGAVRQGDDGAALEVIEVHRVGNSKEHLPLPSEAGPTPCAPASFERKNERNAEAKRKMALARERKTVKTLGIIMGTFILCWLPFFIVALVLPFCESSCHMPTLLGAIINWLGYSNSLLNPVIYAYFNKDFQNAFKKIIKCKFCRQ
Description: Binding affinity for human 5-hydroxytryptamine 1A receptor

[6] = target: T4, Alpha-1D adrenergic receptor (Homo sapiens, UniProt P25100); assay: Binding affinity for human Alpha-1D adrenergic receptor
T4 sequence (P25100 whole entry): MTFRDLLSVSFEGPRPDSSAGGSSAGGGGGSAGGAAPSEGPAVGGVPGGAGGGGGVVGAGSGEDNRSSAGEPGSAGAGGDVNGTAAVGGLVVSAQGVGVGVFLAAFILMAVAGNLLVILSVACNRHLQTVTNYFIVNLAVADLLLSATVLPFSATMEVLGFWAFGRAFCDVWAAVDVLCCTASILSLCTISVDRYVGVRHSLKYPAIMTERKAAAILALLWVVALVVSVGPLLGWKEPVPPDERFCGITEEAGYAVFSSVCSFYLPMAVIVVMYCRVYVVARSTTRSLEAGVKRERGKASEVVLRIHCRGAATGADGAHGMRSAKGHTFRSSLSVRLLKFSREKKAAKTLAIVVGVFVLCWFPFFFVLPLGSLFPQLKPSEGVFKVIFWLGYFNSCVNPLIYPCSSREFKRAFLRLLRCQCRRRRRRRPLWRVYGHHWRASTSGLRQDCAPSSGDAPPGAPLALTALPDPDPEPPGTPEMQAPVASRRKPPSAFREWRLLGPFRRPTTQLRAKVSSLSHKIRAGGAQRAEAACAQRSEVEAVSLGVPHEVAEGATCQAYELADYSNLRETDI

| Structure (SMILES) | Ki [1] [nM] | Ki [2] [nM] | Ki [3] [nM] | Ki [4] [nM] | Ki [5] [nM] | Ki [6] [nM] |
| --- | --- | --- | --- | --- | --- | --- |
| O=C1CC2(CCCC2)CC(=O)N1CCN1CCN(c2ccccc2F)CC1 | 67 | 5.2 | 140 |  |  |  |
| O=C1CC2(CCCC2)CC(=O)N1CCN1CCN(c2ccc(F)c(F)c2)CC1 | 1400 | 160 | 2200 | 4100 | 55 |  |
| C[C@@H](CN1CCN(c2cc(F)c(F)cc2F)CC1)N1C(=O)CC2(CCCC2)CC1=O |  |  |  |  |  | 124 |
| O=C1CC2(CCCC2)CC(=O)N1CCN1CCN(c2ccc(F)cc2)CC1 | 255 | 91 | 2200 | 620 | 54 | 14 |
| O=C1CC2(CCCC2)CC(=O)N1CCN1CCN(c2ccc(F)cc2F)CC1 | 1100 |  |  | 3800 | 24 | 5.6 |
| O=C1CC2(CCCC2)CC(=O)N1CCN1CCN(c2cc(F)ccc2F)CC1 | 54 | 8.1 | 120 |  |  | 0.95 |
| C[C@H](CN1CCN(c2cc(F)c(F)cc2F)CC1)N1C(=O)CC2(CCCC2)CC1=O |  | 120 | 580 | 14000 |  |  |
| O=C1CC2(CCCC2)CC(=O)N1CCN1CCN(c2cc(F)c(F)cc2F)CC1 | 380 | 23 | 700 | 4400 | 360 | 1.9 |
| COc1ccccc1N1CCN(CCN2C(=O)CC3(CCCC3)CC2=O)CC1 [BMY-7378] |  | 3.1 | 14 |  | 0.46 |  |
